Where a name gives a salt, the structure may show the parent alone.
Columns and labels:
thromboxane synthetase = target: T1, thromboxane synthetase (Rattus norvegicus, UniProt P49430); test: Inhibition of thromboxane (TX) formation (TXB2 radioimmunoassay) in washed rat platelets; type: cell-based, Okamoto-Aoki spontaneously hypertensive rats (SHR); details: percent inhibition of TXB2 formation; drug at 10^-4M; SHR platelet suspension, 10 minutes at 37 C
T1 construct: The platelets were isolated by centrifuging the PRP for 10 minutes at 1060xg; from tissue; host or cells: washed blood platelets from Okamoto-Aoki spontaneously hypertensive rats (SHR)
T1 sequence (P49430 1-533): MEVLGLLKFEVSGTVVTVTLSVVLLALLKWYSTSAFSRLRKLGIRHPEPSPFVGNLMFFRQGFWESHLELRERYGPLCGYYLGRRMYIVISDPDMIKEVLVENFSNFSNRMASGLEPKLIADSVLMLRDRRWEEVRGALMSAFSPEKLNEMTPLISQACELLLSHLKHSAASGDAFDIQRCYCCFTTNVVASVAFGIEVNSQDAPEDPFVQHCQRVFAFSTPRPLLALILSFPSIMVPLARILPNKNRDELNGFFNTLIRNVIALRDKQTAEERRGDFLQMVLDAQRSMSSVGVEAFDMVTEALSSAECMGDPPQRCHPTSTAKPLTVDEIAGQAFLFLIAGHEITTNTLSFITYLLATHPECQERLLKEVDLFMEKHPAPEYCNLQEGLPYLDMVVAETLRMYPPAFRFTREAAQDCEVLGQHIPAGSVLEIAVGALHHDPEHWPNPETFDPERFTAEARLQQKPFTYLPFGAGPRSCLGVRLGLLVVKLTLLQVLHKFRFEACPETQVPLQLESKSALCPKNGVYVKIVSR
Source text: The platelet rich plasma (PRP) was separated. […] The inhibition of thromboxane (TX) formation was studied by determing the concentration of thromboxane […] (TXB2), the stable hydrolysis product of TXA2.

[1] = system: spontaneously hypertensive rats of the Okamoto strain; test: Hypotensive activity in spontaneously hypertensive rats (method of Chan and Poorvin); type: in vivo; details: male SHR, average MABP 160±1.5 mm of mercury; gavage, 100 mg/kg or less, second identical dose 24 hours later; MABP at 28 hours after the initial dose; number of rats in brackets
Protocol: The novel compounds of the present invention are also active hypotensive agents and were tested for hypotensive activity by the method of P. S. Chan and b. Poorvin, Clinical and Experimental Hypertension, 1 (6), 817-830 (1979). Male, 16 week old, spontaneously hypertensive rats of the Okamoto strain, from Taconic Farms, Germantown, New York having an average mean arterial blood pressure of 160±1.5 mm of mercury were used in the test. […] A second identical dose of the test compound, without sodium chloride loading is given 24 hours later. At 28 hours after the initial dose, the mean arterial blood pressure (MABP) is measured by the method of Chan and Poorvin vide supra. The procedure is repeated in a second and third rat when necessary. The results of this test on representative compounds of the present invention appear in Table II below.

inhibition at 100 µM (thromboxane synthetase) | Compound | MABP/mm Hg (no. of rats) [1]
75% | CC(Cn1ccnc1)Cn1c(=O)[nH]c2cc(Cl)ccc2c1=O (centres unmarked) [Example 42, 7-Chloro-3-[3-(1H-imidazol-1-yl)-2-methylpropy]-2,4(1H,3H)-quinazolinedione] | 121(2) mm Hg
62% | O=c1[nH]c2c(Cl)cccc2c(=O)n1CCCCn1ccnc1 [Example 43, 8-Chloro-3-[4-(1H-imidazol-1-yl)butyl]-2,4(1H,3H)-quinazolinedione] | 85(2) mm Hg
71% | CC(CCn1c(=O)[nH]c2c(Cl)cccc2c1=O)n1ccnc1 (centres unmarked) [Example 44, 8-Chloro-3-[3-(1H-imidazol-1-yl)butyl]-2,4(1H,3H)-quinazolinedione] | 112(2) mm Hg
68% | O=c1c2ccccc2nnn1CCCCn1ccnc1 [Example 75, 3-[4-(1 H-Imidazol-1-yl)butyl]-1,2,3-benzotriazin-4(3H)-one] | 114(2) mm Hg
74% | O=c1c2cc(Cl)ccc2nnn1CCCn1ccnc1 [Example 76, 6-Chloro-3-[3-(1H-imidazol-1-yl)-propyl]-1,2,3-benzotriazin-4(3H)-one] | 127(3) mm Hg
96% | Cl.O=c1c2cc(Br)ccc2nnn1CCCCn1ccnc1 [Example 82, 6-Bromo-3-[4-(1H-imidazol-1-yl)-butyl]-1,2,3-benzotriazin-4(3H)-one, monohydrochloride] | 115(2) mm Hg
95% | Cc1ccc2nnn(CCCCn3ccnc3)c(=O)c2c1 [Example 84, 3-[4-(1H-Imidazol-1-yl)butyl]-6-methyl-1,2,3-benzotriazin-4(3H)-one] | 106(2) mm Hg
93% | Cc1ccc2c(=O)n(CCCCn3ccnc3)nnc2c1C.Cl [Example 86, 3-[4-(1H-Imidazol-1-yl)butyl]-7,8-dimethyl-1,2,3-benzotriazin-4(3H)-one, monohydrochloride] | 121(2) mm Hg
95% | CC(Cn1ccnc1)Cn1nnc2ccc([N+](=O)[O-])cc2c1=O.O (centres unmarked) [Example 87, 3-[3-(1H-Imidazol-1-yl)-2-methyl-propyl]-6-nitro-1,2,3-benzo-triazin-4(3H)-one, hydrate] | 114(2) mm Hg
82% | O=c1c2cc(Cl)ccc2nnn1CCCCCn1ccnc1 [Example 99, 6-Chloro-3-[5-(1H-imidazol-1-yl)pentyl]-1,2,3-benzotriazin-4(3H)-one] | 117(2) mm Hg
73% | O=c1c2cc(Cl)ccc2nnn1CCCCCCn1ccnc1 [Example 100, 6-Chloro-3-[6-(1H-imidazol-1-yl)hexyl]-1,2,3-benzotriazin-4(3H)-one] | 109(2) mm Hg
67% | O=c1c2ccccc2nnn1CCCCCn1ccnc1 [Example 101, 3-[5-(1H-Imida-zol-1-yl)pentyl]-1,2,3-benzotria-zin-4(3H)-one, monohydrochloride] | 113(2) mm Hg
96% | O=c1c2ccccc2nnn1CCCCCCn1ccnc1 [Example 102, 3-[6-(1H-Imida-zol-1-yl)hexyl]-1,2,3-benzotria-zin-4(3H)-one, monohydrochloride] | 87(2) mm Hg
51% | O=c1c2ccccc2ncn1CCCn1ccnc1 [Example 122, 3-[3-(1 H-Imidazol-1-yl)propyl]-4(3H)-quinazolinone] | 139(2) mm Hg
83% | O=c1c2ccccc2ncn1CCCCn1ccnc1 [Example 123, 3-[4-(1H-Imidazol-1-yl)butyl]-4(3H)-quinazolinone, dihydro-chloride] | 117(3) mm Hg
99% | O=c1c2cc(Cl)ccc2ncn1CCCCn1ccnc1 [Example 124, 6-Chloro-3-[4-(1H-imidazol-1-yl)-butyl]-4(3H)-quinazolinone, dihydro-chloride] | 106(2) mm Hg

Reference: patent EP0293500A1, “3-heteroalkyl-2,4.quinzaoline-diones” (AMERICAN CYANAMID COMPANY, priority 1987, dated 1988)
